# From patent US20190060249A1 (priority 2017, published 2019)
# Biological target: T1, ALDH3A1 (Homo sapiens, UniProt P30838)
# T1 sequence (P30838 1-453): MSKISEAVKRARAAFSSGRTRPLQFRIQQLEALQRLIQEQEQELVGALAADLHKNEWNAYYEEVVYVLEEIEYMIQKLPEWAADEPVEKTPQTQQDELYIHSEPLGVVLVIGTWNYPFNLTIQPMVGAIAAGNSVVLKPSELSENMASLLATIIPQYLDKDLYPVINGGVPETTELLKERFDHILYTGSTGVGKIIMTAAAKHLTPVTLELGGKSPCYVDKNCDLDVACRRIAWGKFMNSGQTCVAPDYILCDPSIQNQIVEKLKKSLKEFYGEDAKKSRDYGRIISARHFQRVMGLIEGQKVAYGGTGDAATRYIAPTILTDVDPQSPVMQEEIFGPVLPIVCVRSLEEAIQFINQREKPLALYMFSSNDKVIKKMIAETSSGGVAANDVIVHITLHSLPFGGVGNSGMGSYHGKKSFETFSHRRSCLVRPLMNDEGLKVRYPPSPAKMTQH
# Assay: ALDH enzymatic assay (spectrophotometric), recombinant ALDH3A1
# Assay type: biochemical
# Settings: 10 mM acetaldehyde, propionaldehyde, benzaldehyde, cinnamaldehyde, decanal, heptaldehyde or 200 μM 4-hydroxynonenal; 100 μM compound
# Text: To determine if ALDH3A1 activation is sufficient to protect salivary glands from radiation-induced dysfunction, a library of 135 traditional Chinese medicine extracts donated from Sun Ten Pharmaceutical Co., Taiwan, was screened using a spectroscopic enzyme activity assay and purified recombinant ALDH3A1. […] We then conducted high performance liquid chromatography (HPLC) fractionation of the extracts and nuclear magnetic resonance (NMR) characterization of the fractions. Based on the NMR fingerprint, we identified known constituents of similar fingerprints and purchased the commercially available compounds to test using the enzyme activity assay.
# ALDH enzymatic assay: ALDH1A1, ALDH1A2, 2, 3A1, 3A2, 4A1, 5A1, 7A1 were measured as previously described using 5 μg/ml of recombinant protein (Chen, C. H., Cruz, L. A., and Mochly-Rosen, D. (2015) Pharmacological recruitment of aldehyde dehydrogenase 3A1 (ALDH3A1) to assist ALDH2 in acetaldehyde and ethanol metabolism in vivo. Proceedings of the National Academy of Sciences of the United States of America 112, 3074-3079). […] Assays were conducted in 50 mM NaPPi buffer (pH 7.4) in the presence of 2.5 mM NAD^+ and 10 mM substrate and measured in triplicate at 25° C. Dose response curve fits and EC50's were calculated using GraphPad Prism 7 software.
# Activity measured in presence of compound concentrations from 6 nM to 400 μM.
compound,measurement,value
"C=CCc1ccc2c(c1)OCO2 [Alda-89, safrole, reference compound]",substrate specificity of increase in ALDH3A1 catalytic activity,only increase the catalytic activity of ALDH3A1 towards small aldehydes like acetaldehyde and propionaldehyde but not aromatic or long-chain aldehydes
